One assay has as its system pBAD in KMS.12.BM cells. As to the kind of experiment: Pim pBAD signaling assay in KMS.12.BM cells (Example B). In kind it is cell-based. The settings on record: Homo sapiens, 2.5 h incubation, pBAD ELISA.
In the next assay the target is Pim-3 (Homo sapiens (Human), UniProt Q86V86). The experiment in a line: Pim-3 kinase assay (Pim enzyme assays, Example A). The conditions noted are these: 1 mM ATP, BAD peptide substrate; read-out: PIM3 IC50. In kind it is biochemical.
The target of a further assay is Pim-2 (Homo sapiens (Human), UniProt Q9P1W9). The experiment in a line: Pim-2 kinase assay (Pim enzyme assays, Example A). In kind it is biochemical. The settings on record: 1 mM ATP, CREBtide peptide substrate; read-out: PIM2 IC50.
Chain of Pim-2 (Q9P1W9 whole entry): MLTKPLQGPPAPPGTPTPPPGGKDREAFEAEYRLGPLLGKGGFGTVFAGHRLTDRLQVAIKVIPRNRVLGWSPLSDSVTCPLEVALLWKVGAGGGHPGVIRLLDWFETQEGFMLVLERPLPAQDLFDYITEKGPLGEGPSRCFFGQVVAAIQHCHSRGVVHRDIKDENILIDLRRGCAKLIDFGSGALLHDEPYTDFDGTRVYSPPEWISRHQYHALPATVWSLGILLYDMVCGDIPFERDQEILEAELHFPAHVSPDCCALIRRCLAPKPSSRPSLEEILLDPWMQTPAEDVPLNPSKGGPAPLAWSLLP
The target in the next assay is Pim-1 (Homo sapiens (Human), UniProt P11309). The experiment in a line: Pim-1 kinase assay (Pim enzyme assays, Example A). The assay is classed as biochemical. The settings on record: 1 mM ATP, BAD peptide substrate; read-out: PIM1 IC50.
Chain of Pim-1 (P11309 whole entry): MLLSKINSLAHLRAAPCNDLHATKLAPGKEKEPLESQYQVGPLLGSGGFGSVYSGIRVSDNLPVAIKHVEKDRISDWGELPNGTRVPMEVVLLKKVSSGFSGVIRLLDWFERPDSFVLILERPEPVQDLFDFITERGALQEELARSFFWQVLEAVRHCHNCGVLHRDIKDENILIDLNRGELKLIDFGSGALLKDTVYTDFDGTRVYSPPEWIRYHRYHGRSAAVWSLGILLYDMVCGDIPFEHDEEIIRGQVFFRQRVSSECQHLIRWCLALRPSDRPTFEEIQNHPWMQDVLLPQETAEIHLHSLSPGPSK

Molecules are shown by their SMILES.

The term IC50 denotes the concentration that inhibits the measured activity by half. With `C[C@H]1CN(c2ccncc2NC(=O)c2ccc3ccc(N4CCC5(CCOCC5)CC4)cc3n2)C[C@@H](N)[C@@H]1O` [Example 14, N-{4-[(3R,4R,5S)-3-Amino-4-hydroxy-5-methylpiperidin-1-yl]pyridin-3-yl}-7-(3-oxa-9-azaspiro[5.5]undec-9-yl)quinoline-2-carboxamide], the IC50 in the assay on pBAD in KMS.12.BM cells was 50 to 250 nM; at Pim-3, ≤ 10 nM; at Pim-2 it was ≤ 100 nM; at Pim-1, ≤ 10 nM.

On to `COC1CCN(c2ccc3ccc(C(=O)Nc4cnccc4N4C[C@H](C)C[C@H](N)C4)nc3c2)CC1` [Example 25, N-{4-[(3S,5R)-3-Amino-5-methylpiperidin-1-yl]pyridin-3-yl}-7-(4-methoxypiperidin-1-yl)quinoline-2-carboxamide], for which the IC50 in the assay with pBAD in KMS.12.BM cells is ≤ 50 nM; on Pim-3 it was ≤ 10 nM; on Pim-2 it was ≤ 100 nM; at Pim-1, ≤ 10 nM.

On to `CCN1CCN(c2ccc3ccc(C(=O)Nc4cnccc4N4C[C@H](C)C[C@H](N)C4)nc3c2)CC1=O` [Example 23, N-{4-[(3S,5R)-3-Amino-5-methylpiperidin-1-yl]pyridin-3-yl}-7-(4-ethyl-3-oxopiperazin-1-yl)quinoline-2-carboxamide], for which the IC50 in the assay with pBAD in KMS.12.BM cells was ≤ 50 nM; at Pim-3 it was ≤ 10 nM; on Pim-2, ≤ 100 nM; on Pim-1 it was ≤ 10 nM.

Turning to `C[C@@H]1C[C@H](N)CN(c2ccncc2NC(=O)c2ccc3ncc(C4CCOCC4)cc3n2)C1` [Example 3, N-{4-[(3S,5R)-3-Amino-5-methylpiperidin-1-yl]pyridin-3-yl}-7-(tetrahydro-2H-pyran-4-yl)-1,5-naphthyridine-2-carboxamide], the IC50 with pBAD in KMS.12.BM cells was ≤ 50 nM; on Pim-3, ≤ 10 nM; on Pim-2, 100 to 1000 nM; at Pim-1, ≤ 10 nM.

Turning to `CC(C)c1ccc2ccc(C(=O)Nc3cnccc3N3C[C@@H](N)[C@H](O)[C@@H](C)C3)nc2c1` [Example 10, N-{4-[(3R,4R,5S)-3-Amino-4-hydroxy-5-methylpiperidin-1-yl]pyridin-3-yl}-7-isopropylquinoline-2-carboxamide], the IC50 was ≤ 50 nM with pBAD in KMS.12.BM cells, ≤ 10 nM on Pim-3, ≤ 100 nM at Pim-2 and ≤ 10 nM at Pim-1.

Values taken from patent publication US9580418B2, “Bicyclic aromatic carboxamide compounds useful as Pim kinase inhibitors” (Incyte Corporation, priority 2014, dated 2017).
